Experiments:
[1] = target: T1, Indoleamine 2,3-dioxygenase 2 (Homo sapiens, UniProt Q6ZQW0); assay: Inhibition of IDO2 (unknown origin) assessed as reduction in kynurenine formation using L-tryptophan as substrate by methylene blue reagent based assay
T1 sequence (Q6ZQW0 whole entry): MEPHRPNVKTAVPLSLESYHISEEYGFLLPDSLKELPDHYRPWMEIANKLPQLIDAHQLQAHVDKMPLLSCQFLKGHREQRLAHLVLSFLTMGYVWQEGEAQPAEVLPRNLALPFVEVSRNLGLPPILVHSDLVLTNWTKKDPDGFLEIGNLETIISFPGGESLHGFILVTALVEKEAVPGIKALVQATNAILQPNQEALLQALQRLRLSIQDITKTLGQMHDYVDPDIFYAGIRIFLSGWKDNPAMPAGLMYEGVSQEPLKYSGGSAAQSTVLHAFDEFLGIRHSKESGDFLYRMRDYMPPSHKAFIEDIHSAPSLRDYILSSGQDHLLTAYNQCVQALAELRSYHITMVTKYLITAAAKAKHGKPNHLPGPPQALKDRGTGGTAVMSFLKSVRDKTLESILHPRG

[2] = target: T2, Indoleamine 2,3-dioxygenase 1 (Homo sapiens, UniProt P14902); assay: Inhibition of IDO1 (unknown origin) assessed as reduction in kynurenine formation using L-tryptophan as substrate by methylene blue reagent based assay
Target sequence in this assay (P14902 whole entry): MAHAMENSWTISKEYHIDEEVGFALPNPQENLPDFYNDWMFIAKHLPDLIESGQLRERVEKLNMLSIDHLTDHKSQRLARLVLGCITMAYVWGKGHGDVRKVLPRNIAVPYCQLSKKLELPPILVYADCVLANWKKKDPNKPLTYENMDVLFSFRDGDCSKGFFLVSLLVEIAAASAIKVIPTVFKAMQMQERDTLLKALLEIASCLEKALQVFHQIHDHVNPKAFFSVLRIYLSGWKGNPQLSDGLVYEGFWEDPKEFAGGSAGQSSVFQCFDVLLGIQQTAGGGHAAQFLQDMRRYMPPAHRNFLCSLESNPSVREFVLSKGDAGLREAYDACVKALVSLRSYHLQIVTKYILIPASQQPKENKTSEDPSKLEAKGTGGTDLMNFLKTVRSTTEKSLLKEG

[3] = target: T2, Indoleamine 2,3-dioxygenase 1; assay: Inhibition of IDO1 (unknown origin) assessed as reduction in kynurenine formation using L-tryptophan as substrate by methylene blue reagent based assay relative to control; design: concentration or dose not given beside the values; conditions: concentration not given here
Target sequence in this assay (P14902 whole entry, looked up): as the sequence (P14902 whole entry) above

[4] = target: T3, Indoleamine 2,3-dioxygenase 2 (Homo sapiens) (UniProt Q6ZQW0); assay: Inhibition of IDO2 (unknown origin) assessed as reduction in kynurenine formation using L-tryptophan as substrate by methylene blue reagent based assay relative to control; design: concentration or dose not given beside the values; conditions: concentration not given here
T3 sequence (whole entry): T1 sequence (Q6ZQW0 whole entry)

For `CCC(O)c1cn(CCNc2nonc2/C(=N/O)Nc2ccc(F)c(Br)c2)nn1` (centres undefined), the IC50 [1] was 947 nM and the IC50 [2] was 73 nM.

In the case of `COc1ccc(-c2cn(CCNc3nonc3/C(=N/O)Nc3ccc(F)c(Br)c3)nn2)cc1`, the inhibition [3] is reported as 8% and the inhibition [4] is reported as 15%.

In the case of `COCc1cn(CCNc2nonc2/C(=N/O)Nc2ccc(F)c(Br)c2)nn1`, the inhibition [3] is reported as 20.5% and the inhibition [4] is reported as 7%.

For `CC(OCCO)c1cn(CCNc2nonc2/C(=N/O)Nc2ccc(F)c(Br)c2)nn1` (centres undefined), the IC50 [1] was 930 nM and the IC50 [2] was 134 nM.

For `O/N=C(\Nc1ccc(F)c(Br)c1)c1nonc1NCCn1cc(C2CC2)nn1`, the inhibition [3] was 37% and the inhibition [4] was 10%.

`CC(C)CC(C)(O)c1cn(CCNc2nonc2/C(=N/O)Nc2ccc(F)c(Br)c2)nn1` (centres undefined) showed an IC50 [1] of 689 nM and an IC50 [2] of 51 nM.

In the case of `CC(C)(O)c1cn(CCNc2nonc2/C(=N/O)Nc2ccc(F)c(Br)c2)nn1`, the IC50 [1] is reported as 726 nM and the IC50 [2] is reported as 115 nM.
